# Tests used:
# Experiment in all cases: relative viability (nuclei count vs DMSO), 5 days (fraction); higher = more cells survive
# Bexarotene = compound: C=C(c1ccc(C(=O)O)cc1)c1cc2c(cc1C)C(C)(C)CCC2(C)C [Bexarotene]
# In short: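 Viability here means nuclei in treated wells divided by nuclei in vehicle wells, reported as the median across plates. Only plates with control CV below 25% and at least one doubling passed. Lung cancer cell lines in 1536-well plates were exposed to five √10-spaced library-drug doses for 5 days and counted from 4× Hoechst images in MetaXpress.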
# Bexarotene + Trametinib = compound: C=C(c1ccc(C(=O)O)cc1)c1cc2c(cc1C)C(C)(C)CCC2(C)C [Bexarotene] + CC(=O)Nc1cccc(-n2c(=O)n(C3CC3)c(=O)c3c(Nc4ccc(I)cc4F)n(C)c(=O)c(C)c32)c1 [Trametinib] (partner 0.02 µM)
# In short: (§1)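 Values are medians from duplicate plates. Each reflects relative viability, defined as the nuclei count of treated wells over that of vehicle wells. Lung cancer cell lines in 1536-well plates were pin-tool dosed one day after seeding with one drug alone or with a fixed anchor-drug dose plus five library-drug doses (not always all listed) in √10 steps, then fixed, stained and imaged at 4× after 5 days.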
# Bexarotene + Palbociclib = compound: C=C(c1ccc(C(=O)O)cc1)c1cc2c(cc1C)C(C)(C)CCC2(C)C [Bexarotene] + CC(=O)c1c(C)c2cnc(Nc3ccc(N4CCNCC4)cn3)nc2n(C2CCCC2)c1=O [Palbociclib] (partner 0.5 µM)
# In short: as §1
# Bexarotene + Luminespib = compound: C=C(c1ccc(C(=O)O)cc1)c1cc2c(cc1C)C(C)(C)CCC2(C)C [Bexarotene] + CCNC(=O)c1noc(-c2cc(C(C)C)c(O)cc2O)c1-c1ccc(CN2CCOCC2)cc1 [Luminespib] (partner 0.01 µM)
# In short: as §1
# Bexarotene + OSI-027 = compound: C=C(c1ccc(C(=O)O)cc1)c1cc2c(cc1C)C(C)(C)CCC2(C)C [Bexarotene] + COc1cccc2cc(-c3nc([C@H]4CC[C@H](C(=O)O)CC4)n4ncnc(N)c34)[nH]c12 [OSI-027] (partner 0.5 µM)
# In short: as §1
# Bexarotene + Tozasertib = compound: C=C(c1ccc(C(=O)O)cc1)c1cc2c(cc1C)C(C)(C)CCC2(C)C [Bexarotene] + Cc1cc(Nc2cc(N3CCN(C)CC3)nc(Sc3ccc(NC(=O)C4CC4)cc3)n2)n[nH]1 [Tozasertib] (partner 0.1 µM)
# In short: as §1
# Bexarotene + Dasatinib = compound: C=C(c1ccc(C(=O)O)cc1)c1cc2c(cc1C)C(C)(C)CCC2(C)C [Bexarotene] + Cc1nc(Nc2ncc(C(=O)Nc3c(C)cccc3Cl)s2)cc(N2CCN(CCO)CC2)n1 [Dasatinib] (partner 0.075 µM)
# In short: as §1
# Bexarotene + Phenformin = compound: C=C(c1ccc(C(=O)O)cc1)c1cc2c(cc1C)C(C)(C)CCC2(C)C [Bexarotene] + N=C(N)NC(=N)NCCc1ccccc1 [Phenformin] (partner 250 µM)
# In short: as §1
# Bexarotene + AZD7762 = compound: C=C(c1ccc(C(=O)O)cc1)c1cc2c(cc1C)C(C)(C)CCC2(C)C [Bexarotene] + NC(=O)Nc1cc(-c2cccc(F)c2)sc1C(=O)N[C@H]1CCCNC1 [AZD7762] (partner 0.2 µM)
# In short: as §1
# Bexarotene + Pemetrexed = compound: C=C(c1ccc(C(=O)O)cc1)c1cc2c(cc1C)C(C)(C)CCC2(C)C [Bexarotene] + Nc1nc2[nH]cc(CCc3ccc(C(=O)N[C@@H](CCC(=O)O)C(=O)O)cc3)c2c(=O)[nH]1 [Pemetrexed] (partner 0.2 µM)
# In short: as §1
# Bexarotene + Decitabine = compound: C=C(c1ccc(C(=O)O)cc1)c1cc2c(cc1C)C(C)(C)CCC2(C)C [Bexarotene] + Nc1ncn([C@H]2C[C@H](O)[C@@H](CO)O2)c(=O)n1 [Decitabine] (partner 2 µM)
# In short: as §1
# Bexarotene + Vorinostat = compound: C=C(c1ccc(C(=O)O)cc1)c1cc2c(cc1C)C(C)(C)CCC2(C)C [Bexarotene] + O=C(CCCCCCC(=O)Nc1ccccc1)NO [Vorinostat] (partner 1 µM)
# In short: as §1
# Bexarotene + Olaparib = compound: C=C(c1ccc(C(=O)O)cc1)c1cc2c(cc1C)C(C)(C)CCC2(C)C [Bexarotene] + O=C(c1cc(Cc2n[nH]c(=O)c3ccccc23)ccc1F)N1CCN(C(=O)C2CC2)CC1 [Olaparib] (partner 8 µM)
# In short: as §1
cell line,measurement,setting,value
NCI-H522,relative viability,Bexarotene; 0.08 µM,1.14
same,relative viability,Bexarotene; 0.253 µM,0.872
same,relative viability,Bexarotene; 0.8 µM,0.957
same,relative viability,Bexarotene; 2.53 µM,0.816
same,relative viability,Bexarotene; 8 µM,1.02
same,relative viability,Bexarotene + Trametinib; first compound 0.08 µM,0.736
same,relative viability,Bexarotene + Trametinib; first compound 0.253 µM,0.805
same,relative viability,Bexarotene + Trametinib; first compound 0.8 µM,0.74
same,relative viability,Bexarotene + Trametinib; first compound 2.53 µM,0.797
same,relative viability,Bexarotene + Trametinib; first compound 8 µM,0.736
same,relative viability,Bexarotene + Palbociclib; first compound 0.08 µM,1.04
same,relative viability,Bexarotene + Palbociclib; first compound 0.253 µM,0.887
same,relative viability,Bexarotene + Palbociclib; first compound 0.8 µM,1.07
same,relative viability,Bexarotene + Palbociclib; first compound 2.53 µM,1.14
same,relative viability,Bexarotene + Palbociclib; first compound 8 µM,1.04
same,relative viability,Bexarotene + Luminespib; first compound 0.08 µM,1.24
same,relative viability,Bexarotene + Luminespib; first compound 0.253 µM,1.09
same,relative viability,Bexarotene + Luminespib; first compound 0.8 µM,1.17
same,relative viability,Bexarotene + Luminespib; first compound 2.53 µM,1.23
same,relative viability,Bexarotene + Luminespib; first compound 8 µM,0.899
same,relative viability,Bexarotene + OSI-027; first compound 0.08 µM,0.722
same,relative viability,Bexarotene + OSI-027; first compound 0.253 µM,0.721
same,relative viability,Bexarotene + OSI-027; first compound 0.8 µM,0.677
same,relative viability,Bexarotene + OSI-027; first compound 2.53 µM,0.706
same,relative viability,Bexarotene + OSI-027; first compound 8 µM,0.705
same,relative viability,Bexarotene + Tozasertib; first compound 0.08 µM,0.551
same,relative viability,Bexarotene + Tozasertib; first compound 0.253 µM,0.523
same,relative viability,Bexarotene + Tozasertib; first compound 0.8 µM,0.562
same,relative viability,Bexarotene + Tozasertib; first compound 2.53 µM,0.506
same,relative viability,Bexarotene + Tozasertib; first compound 8 µM,0.634
same,relative viability,Bexarotene + Dasatinib; first compound 0.08 µM,0.939
same,relative viability,Bexarotene + Dasatinib; first compound 0.253 µM,0.874
same,relative viability,Bexarotene + Dasatinib; first compound 0.8 µM,0.957
same,relative viability,Bexarotene + Dasatinib; first compound 2.53 µM,0.842
same,relative viability,Bexarotene + Dasatinib; first compound 8 µM,0.93
same,relative viability,Bexarotene + Phenformin; first compound 0.08 µM,0.612
same,relative viability,Bexarotene + Phenformin; first compound 0.253 µM,0.521
same,relative viability,Bexarotene + Phenformin; first compound 0.8 µM,0.591
same,relative viability,Bexarotene + Phenformin; first compound 2.53 µM,0.518
same,relative viability,Bexarotene + Phenformin; first compound 8 µM,0.626
same,relative viability,Bexarotene + AZD7762; first compound 0.08 µM,0.788
same,relative viability,Bexarotene + AZD7762; first compound 0.253 µM,0.949
same,relative viability,Bexarotene + AZD7762; first compound 0.8 µM,0.734
same,relative viability,Bexarotene + AZD7762; first compound 2.53 µM,0.697
same,relative viability,Bexarotene + AZD7762; first compound 8 µM,0.822
same,relative viability,Bexarotene + Pemetrexed; first compound 0.08 µM,1.01
same,relative viability,Bexarotene + Pemetrexed; first compound 0.253 µM,1.18
same,relative viability,Bexarotene + Pemetrexed; first compound 0.8 µM,1.11
same,relative viability,Bexarotene + Pemetrexed; first compound 2.53 µM,0.855
same,relative viability,Bexarotene + Pemetrexed; first compound 8 µM,0.862
same,relative viability,Bexarotene + Decitabine; first compound 0.08 µM,0.642
same,relative viability,Bexarotene + Decitabine; first compound 0.253 µM,0.666
same,relative viability,Bexarotene + Decitabine; first compound 0.8 µM,0.653
same,relative viability,Bexarotene + Decitabine; first compound 2.53 µM,0.673
same,relative viability,Bexarotene + Decitabine; first compound 8 µM,0.609
same,relative viability,Bexarotene + Vorinostat; first compound 0.08 µM,0.961
same,relative viability,Bexarotene + Vorinostat; first compound 0.253 µM,0.862
same,relative viability,Bexarotene + Vorinostat; first compound 0.8 µM,0.977
same,relative viability,Bexarotene + Vorinostat; first compound 2.53 µM,0.94
same,relative viability,Bexarotene + Vorinostat; first compound 8 µM,1.01
same,relative viability,Bexarotene + Olaparib; first compound 0.08 µM,0.666
same,relative viability,Bexarotene + Olaparib; first compound 0.253 µM,0.66
same,relative viability,Bexarotene + Olaparib; first compound 0.8 µM,0.635
same,relative viability,Bexarotene + Olaparib; first compound 2.53 µM,0.564
same,relative viability,Bexarotene + Olaparib; first compound 8 µM,0.675

# From the supplement of paper PMC10307832
